The values that follow come from ChEMBL document CHEMBL2163248, “Classification of inhibitors of hepatic organic anion transporting polypeptides (OATPs): influence of protein expression on drug-drug interactions” (J Med Chem, 2012).

The target in data set [1] is T1, Solute carrier organic anion transporter family member 2B1 (Homo sapiens, UniProt O94956).
T1 sequence (O94956 whole entry): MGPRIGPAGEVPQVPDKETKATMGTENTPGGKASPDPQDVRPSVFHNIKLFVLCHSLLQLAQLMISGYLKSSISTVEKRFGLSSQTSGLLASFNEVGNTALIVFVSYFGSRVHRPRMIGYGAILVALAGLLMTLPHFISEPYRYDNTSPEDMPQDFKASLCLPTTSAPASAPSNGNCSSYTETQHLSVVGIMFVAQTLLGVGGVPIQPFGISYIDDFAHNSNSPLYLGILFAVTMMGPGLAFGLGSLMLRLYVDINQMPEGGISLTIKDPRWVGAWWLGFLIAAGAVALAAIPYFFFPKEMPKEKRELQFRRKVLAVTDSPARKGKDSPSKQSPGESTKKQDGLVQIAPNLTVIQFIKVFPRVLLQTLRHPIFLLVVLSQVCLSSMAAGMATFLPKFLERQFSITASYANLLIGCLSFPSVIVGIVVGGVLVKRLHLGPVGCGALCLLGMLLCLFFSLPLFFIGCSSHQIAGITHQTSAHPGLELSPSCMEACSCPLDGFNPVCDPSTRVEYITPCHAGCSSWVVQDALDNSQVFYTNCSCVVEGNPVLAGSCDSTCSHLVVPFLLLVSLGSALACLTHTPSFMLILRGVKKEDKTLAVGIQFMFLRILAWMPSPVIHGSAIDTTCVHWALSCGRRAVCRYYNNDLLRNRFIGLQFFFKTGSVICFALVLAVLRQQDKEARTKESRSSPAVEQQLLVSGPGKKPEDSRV
The experiment in a line: Inhibition of human liver OATP2B1 expressed in HEK293 Flp-In cells assessed as reduction in [3H]E3S uptake at 20 uM incubated for 5 mins by scintillation counting. The note with it: hek293, 5 min.

Data set [2] has as its target T2, Solute carrier organic anion transporter family member 1B3 (Homo sapiens, UniProt Q9NPD5).
T2 sequence (Q9NPD5 whole entry): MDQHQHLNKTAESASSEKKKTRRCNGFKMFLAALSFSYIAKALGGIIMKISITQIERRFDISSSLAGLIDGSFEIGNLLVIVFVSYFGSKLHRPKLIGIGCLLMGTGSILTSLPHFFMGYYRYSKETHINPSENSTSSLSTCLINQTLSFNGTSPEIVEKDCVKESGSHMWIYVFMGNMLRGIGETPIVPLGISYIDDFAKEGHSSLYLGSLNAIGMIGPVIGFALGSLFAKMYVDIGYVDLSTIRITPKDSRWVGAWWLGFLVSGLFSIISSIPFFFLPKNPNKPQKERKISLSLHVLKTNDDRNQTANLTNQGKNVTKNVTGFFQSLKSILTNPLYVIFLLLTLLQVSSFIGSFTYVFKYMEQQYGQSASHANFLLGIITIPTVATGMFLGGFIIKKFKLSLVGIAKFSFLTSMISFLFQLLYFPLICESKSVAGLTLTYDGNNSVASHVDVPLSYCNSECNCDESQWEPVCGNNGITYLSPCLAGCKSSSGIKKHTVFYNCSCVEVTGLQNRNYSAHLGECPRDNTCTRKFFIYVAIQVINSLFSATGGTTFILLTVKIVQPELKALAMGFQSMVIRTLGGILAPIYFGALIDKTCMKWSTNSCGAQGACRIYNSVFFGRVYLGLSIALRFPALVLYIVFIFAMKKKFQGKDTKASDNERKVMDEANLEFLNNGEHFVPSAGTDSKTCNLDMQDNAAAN
Put plainly: Inhibition of human liver OATP1B3 expressed in HEK293 Flp-In cells assessed as reduction in [3H]E17-betaG uptake at 20 uM incubated for 5 mins by scintillation counting. The note with it: hek293, 5 min.

Data set [3] deals with T3, Solute carrier organic anion transporter family member 1B1 (Homo sapiens, UniProt Q9Y6L6).
T3 sequence (Q9Y6L6 whole entry): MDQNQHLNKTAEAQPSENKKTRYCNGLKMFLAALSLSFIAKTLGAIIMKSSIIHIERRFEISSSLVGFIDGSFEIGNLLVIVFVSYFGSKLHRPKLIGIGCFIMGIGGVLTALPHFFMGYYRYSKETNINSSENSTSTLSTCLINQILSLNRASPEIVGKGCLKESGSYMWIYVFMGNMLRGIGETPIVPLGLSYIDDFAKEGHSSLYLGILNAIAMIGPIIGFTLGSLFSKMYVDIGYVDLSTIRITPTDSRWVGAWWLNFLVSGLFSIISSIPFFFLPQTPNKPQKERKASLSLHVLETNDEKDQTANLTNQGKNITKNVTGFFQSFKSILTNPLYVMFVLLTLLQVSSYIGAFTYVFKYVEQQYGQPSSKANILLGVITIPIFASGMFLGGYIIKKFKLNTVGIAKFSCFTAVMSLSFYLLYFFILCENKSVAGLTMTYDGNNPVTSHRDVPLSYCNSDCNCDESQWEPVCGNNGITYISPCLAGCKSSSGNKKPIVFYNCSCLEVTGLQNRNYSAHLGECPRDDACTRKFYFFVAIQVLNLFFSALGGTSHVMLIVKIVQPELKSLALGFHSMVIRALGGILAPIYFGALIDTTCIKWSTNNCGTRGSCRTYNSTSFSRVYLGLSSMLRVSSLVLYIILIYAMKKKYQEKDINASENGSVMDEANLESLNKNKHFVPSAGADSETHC
The experiment in a line: Inhibition of human liver OATP1B1 expressed in HEK293 Flp-In cells assessed as reduction in E17-betaG uptake at 20 uM by scintillation counting. The note with it: hek293, 20 µM.

Structures are written as SMILES.

Turning to `CCOc1nc2cccc(C(=O)O)c2n1Cc1ccc(-c2ccccc2-c2nnn[nH]2)cc1`, the INH in data set [1] amounted to 28.4%; in data set [2], 28.6%; in data set [3] it was 52.1%.

On to `CCCc1nc2c(C)cc(-c3nc4ccccc4n3C)cc2n1Cc1ccc(-c2ccccc2C(=O)O)cc1`, for which the INH in data set [1] was 94.9%; in data set [2], 91.5%; in data set [3], 109.4%.

Consider `CCCCC(=O)N(Cc1ccc(-c2ccccc2-c2nnn[nH]2)cc1)[C@H](C(=O)O)C(C)C`, for which the values for the INH in data set [1], in data set [2] and in data set [3] were 12.3%, 33.7% and 62.2%, respectively.

For the compound `CC(C)(C)NC(=O)[C@@H]1C[C@@H]2CCCC[C@@H]2CN1C[C@@H](O)[C@H](Cc1ccccc1)NC(=O)[C@H](CC(N)=O)NC(=O)c1ccc2ccccc2n1`, in data set [2], the INH is 6.6%.

For `CC(C)CN(C[C@@H](O)[C@H](Cc1ccccc1)NC(=O)O[C@H]1CCOC1)S(=O)(=O)c1ccc(N)cc1`, the INH is on record as -3.4% in data set [1], 16.3% in data set [2] and 79.3% in data set [3].

For the compound `CN1CCC[C@@H]1Cc1c[nH]c2ccc(CCS(=O)(=O)c3ccccc3)cc12`, the INH in data set [1] turned out to be 0.4%; in data set [2] it was 2.8%; in data set [3], 31.7%.

For the compound `CCCc1nn(C)c2c(=O)[nH]c(-c3cc(S(=O)(=O)N4CCN(C)CC4)ccc3OCC)nc12`, the INH in data set [1] stood at 45.9%; in data set [2], 30.8%; in data set [3] it was 22.2%.

For the compound `CCC[C@@]1(CCc2ccccc2)CC(O)=C([C@H](CC)c2cccc(NS(=O)(=O)c3ccc(C(F)(F)F)cn3)c2)C(=O)O1`, the INH was found to be 99% in data set [1], 109% in data set [2] and 89.5% in data set [3].

For the compound `C=C[C@H]1C[N+]2(C)CC[C@H]1C[C@@H]2[C@@H](O)c1ccnc2ccc(OC)cc12`, the INH in data set [1] is -10.3%; in data set [2] it was 21%; in data set [3], -6.1%.

As for `COc1cc2c(cc1OC)CN(CCc1ccc(NC(=O)c3cccc4c(=O)c5cccc(OC)c5[nH]c34)cc1)CC2`, the INH in data set [1] is given as 67.2%; in data set [2], 37.4%; in data set [3], 94.4%.

As to `COc1ccc2c3c([nH]c2c1)[C@H](CC(C)C)N1C(=O)[C@H](CCC(=O)OC(C)(C)C)NC(=O)[C@@H]1C3`, the INH worked out at 78.8% in data set [1], 24.2% in data set [2] and 59.3% in data set [3].

With `Cc1ccc(N(CC(=O)O)CC(=O)O)c(OCCOc2cc(-c3c4cc(Cl)c(=O)cc-4oc4cc(O)c(Cl)cc34)ccc2N(CC(=O)O)CC(=O)O)c1`, in data set [2], the INH was determined as 88.5%.

On to `CC(C)(C)NC(=O)[C@@H]1CN(Cc2cccnc2)CCN1C[C@@H](O)C[C@@H](Cc1ccccc1)C(=O)N[C@H]1c2ccccc2C[C@H]1O.O`, for which the INH was determined as 17.8% in data set [1], 18.1% in data set [2] and 71.9% in data set [3].

For the compound `CCOC(=O)[C@H](CCc1ccccc1)N[C@@H](C)C(=O)N1CCC[C@H]1C(=O)O`, the INH in data set [1] was 19.7%; in data set [2] it was 4.1%; in data set [3] it was -7.5%.

For `Cc1c(O)cccc1C(=O)N[C@@H](CSc1ccccc1)[C@H](O)CN1C[C@H]2CCCC[C@H]2C[C@H]1C(=O)NC(C)(C)C`, the INH is 50% in data set [1], 59.3% in data set [2] and 71.3% in data set [3].

Take `COc1ccc(CCN(C)CCCC(C#N)(c2ccc(OC)c(OC)c2)C(C)C)cc1OC` (configuration not stated): the INH is listed as -62.6% in data set [1] and -9% in data set [2].

As to `C[C@H]1O[C@H](O[C@H]2[C@H](O)[C@@H](O)[C@@H](O[C@H]3[C@H](O)[C@@H](O)C(O)O[C@@H]3CO)O[C@@H]2CO)[C@H](O)[C@@H](O)[C@@H]1N[C@H]1C=C(CO)[C@@H](O)[C@H](O)[C@H]1O` (some centres not stated) [ACARBOSE], the INH in data set [1] came to 0.1%; in data set [2] it was 17.7%; in data set [3], 14.9%.

For the compound `CNCCCN1c2ccccc2CCc2ccccc21` [DESIPRAMINE], the INH was -4.4% in data set [1] and 3.2% in data set [2].

Regarding `CN(CCOc1ccc(NS(C)(=O)=O)cc1)CCc1ccc(NS(C)(=O)=O)cc1` [DOFETILIDE], the results for the INH in data set [2] and in data set [3] were 19.9% and 1%, respectively.

Consider `Nc1nc(=O)n([C@@H]2CS[C@H](CO)O2)cc1F` [EMTRICITABINE], for which the results for the INH in data set [2] and in data set [3] were 17.1% and 6.4%, respectively.

Consider `COc1cc([C@@H]2c3cc4c(cc3[C@@H](O[C@@H]3O[C@@H]5CO[C@@H](C)O[C@H]5[C@H](O)[C@H]3O)[C@H]3COC(=O)[C@H]23)OCO4)cc(OC)c1O` [ETOPOSIDE], for which the INH in data set [1] came to 6.8%.

As for `CC(C)n1c(/C=C/C(O)CC(O)CC(=O)O)c(-c2ccc(F)cc2)c2ccccc21` (configuration not stated) [FLUVASTATIN], the INH in data set [2] is listed as 76%.

Consider `COc1ccc(Cl)cc1C(=O)NCCc1ccc(S(=O)(=O)NC(=O)NC2CCCCC2)cc1` [GLYBURIDE], for which the INH in data set [1] stood at 77.4%; in data set [2], 49.3%.

For the compound `O=C1CN(/N=C/c2ccc([N+](=O)[O-])o2)C(=O)N1` [NITROFURANTOIN], the values for the INH in data set [1] and in data set [2] were 23.1% and -1.5%, respectively.

On to `CCCCC1C(=O)N(c2ccccc2)N(c2ccccc2)C1=O` [PHENYLBUTAZONE], for which the INH in data set [2] came out at 17%.

For the compound `CCCN(CCC)S(=O)(=O)c1ccc(C(=O)O)cc1` [PROBENECID], the values for the INH in data set [2] and in data set [3] were 22% and 35.2%, respectively.

For `C=C[C@H]1C[N@@]2CC[C@H]1C[C@@H]2[C@@H](O)c1ccnc2ccc(OC)cc12` [QUINIDINE], in data set [3], the INH is reported as 43.3%.

On to `C=C[C@H]1C[N@@]2CC[C@H]1C[C@H]2[C@H](O)c1ccnc2ccc(OC)cc12` [QUININE], for which the INH in data set [3] was 54%.

As for `COC(=O)[C@H]1[C@H]2C[C@@H]3c4[nH]c5cc(OC)ccc5c4CCN3C[C@H]2C[C@@H](OC(=O)c2cc(OC)c(OC)c(OC)c2)[C@@H]1OC` [RESERPINE], the INH in data set [1] is on record as 72.3%; in data set [3] it was 67.2%.

As for `CCC(C)(C)C(=O)O[C@H]1C[C@@H](C)C=C2C=C[C@H](C)[C@H](CC[C@@H]3C[C@@H](O)CC(=O)O3)[C@H]21` [SIMVASTATIN], the INH in data set [1] is recorded as 47.4%; in data set [2] it was 29.3%.

Consider `Nc1ccc(S(=O)(=O)Nc2ccnn2-c2ccccc2)cc1` [SULFAPHENAZOLE], for which the results for the INH in data set [1] and in data set [2] were 17.1% and 0.7%, respectively.

Consider `CC/C(=C(\c1ccccc1)c1ccc(OCCN(C)C)cc1)c1ccccc1` [TAMOXIFEN], for which the INH in data set [1] is reported as 11%; in data set [2], 28.5%.

Consider `C[C@]12CC[C@H]3[C@@H](CCC4=CC(=O)CC[C@@]43C)[C@@H]1CC[C@@H]2O` [TESTOSTERONE], for which, in data set [1], the INH is listed as -175.1%.
